Structures can show the parent of a compound that is named as a salt.
What was measured:
[1] = biological target: T1, Recombinant human p38α (Homo sapiens, UniProt Q16539); assay: Fluorescence anisotropy kinase binding assay (standard or low volume); settings: 12 nM p38α, 5 nM fluorescent ligand
T1 construct: GST; made in house
Text: (§1) The concentration of kinase enzyme should preferably be >2×Kf. The concentration of fluorescent ligand required will depend on the instrumentation used, and the fluorescent and physicochemical properties. The concentration used must be lower than the concentration of kinase enzyme, and preferably less than half the kinase enzyme concentration.
The fluorescent ligand is the following compound:
[drawing 329] • which is derived from 5-[2-(4-aminomethylphenyl)-5-pyridin-4-yl-1H-imidazol-4-yl]-2-chlorophenol and rhodamine green. Recombinant human p38α was expressed as a GST-tagged protein. To activate this protein, 3.5 μM unactivated p38α was incubated in 50 mM Tris-HCl pH 7.5, 0.1 mM EGTA, 0.1% 2-mercaptoethanol, 0.1 mM sodium vanadate, 10 mM MgAc, 0.1 mM ATP with 200 nM MBP-MKK6 DD at 30 degrees for 30 mins. Following activation p38α was re-purified and the activity assessed using a standard filter-binding assay. Protocol: All components are dissolved in buffer of composition 62.5 mM HEPES, pH 7.5, 1.25 mM CHAPS, 1 mM DTT, 12.5 mM MgCl2 with final concentrations of 12 nM p38α and 5 nM fluorescent ligand. 30 μl of this reaction mixture is added to wells containing 1 μl of various concentrations of test compound (0.28 nM-16.6 μM final) or DMSO vehicle (3% final) in NUNC 384 well black microtitre plate and equilibrated for 30-60 mins at room temperature. Fluorescence anisotropy is read in Molecular Devices Acquest (excitation 485 nm/emission 535 nm). Definitions: Ki=dissociation constant for inhibitor binding • Kf=dissociation constant for fluorescent ligand binding
as §1, with “2×Kf.” for “>2×Kf.”, “concentration. The fluorescent ligand is the following compound:” for “concentration.”
which is derived from 5-[2-(4-aminomethylphenyl)-5-pyridin-4-yl-1H-imidazol-4-yl]-2-chlorophenol and rhodamine green. Recombinant human p38α was expressed as a GST-tagged protein. To activate this protein, 3.5 μM unactivated p38α was incubated in 50 mM Tris-HCl pH 7.5, 0.1 mM EGTA, 0.1% 2-mercaptoethanol, 0.1 mM sodium vanadate, 10 mM MgAc, 0.1 mM ATP with 200 nM MBP-MKK6 DD at 30 degrees for 30 mins. Following activation p38α was re-purified and the activity assessed using a standard filter-binding assay. Protocol: All components are dissolved in buffer of composition 62.5 mM HEPES, pH 7.5, 1.25 mM CHAPS, 1 mM DTT, 12.5 mM MgCl2 with final concentrations of 12 nM p38α and 5 nM fluorescent ligand. […] of this reaction mixture is added to wells containing 0.1 μl of various concentrations of test compound (0.02 nM-25 μM final) or DMSO vehicle (1.7% final) in Greiner low volume 384 well black microtitre plate and equilibrated for 30-60 mins at room temperature. Fluorescence anisotropy is read in Molecular Devices Acquest (excitation 485 nm/emission 535 nm). Definitions: Ki dissociation constant for inhibitor binding • Kf=dissociation constant for fluorescent ligand binding It is noted that there are two assay formats shown above for the Fluorescence anisotropy kinase binding assay. The only difference between these two assays is the volume used and the plate type. […] The results described herein may have been performed in either assay format and are not differentiated as to which.

[2] = tested on: influx of neutrophils to the lung in LPS-challenged rats; assay: Rat LPS neutrophilia model; format: in vivo; settings: LPS aerosol, lavage 4 hours later, in at least one of the range of conditions tested, significance p<0.05
Protocol: The effect of compounds on the influx of neutrophils to the lung in LPS-challenged rats is evaluated as follows. The test compound is suspended in one of the following solutions: 0.5% tween 80/PBS, 0.5% tween 80/saline, 10% EtOH/saline (with pH adjusted to 2.0, or 8.0 with HCl, or unadjusted), Saline (pH 2.0, 6.5 or 8.0, 0.5% Tragacanth, 1% DMSO/20% Encapsin/Saline, or acidified 5% Tragacanth. The suspension process may be aided by the use of a glass homogenizer. For intratracheal administration, the animals are anesthetized with inhaled isoflurane and placed in a supine position, the trachea is intubated with a steel gavage needle (1.5 inch, 22 gauge, small ball) or a Penn-Century Microsprayer Aerosolizer (model IA-LB) and 200 ul of dosing solution is delivered. The animals are visually monitored during the recovery process, which typically occurs within two minutes.
Rats treated with compound or vehicle (15 min-24 hours pretreatment) are exposed to an LPS aerosol (100 ug/ml) for 15 min. Four hours later the rats are euthanized with pentobarbital (100 mg/kg, i.p.) and the airways are lavaged with 5 washes of 5 ml of phosphate buffered saline. The harvested cells are stained (Diffquick) and counted to determine total and differential cell data. In a typical study, macrophages represent 40-70% of the total cells, and polymorphonuclear cells 30-60% of the total cells. Inhibition of neutrophil levels relative to no compound controls is calculated based on the differential counts.
The assay has varying conditions, such as concentration, pretreat time, form of the compound (crystalline, amorphous, salts, micronised), and a wet or dry application of the compound.
The data is obtained as % inhibition using a particular concentration and pretreat time.

T1 sequence (Q16539 whole entry): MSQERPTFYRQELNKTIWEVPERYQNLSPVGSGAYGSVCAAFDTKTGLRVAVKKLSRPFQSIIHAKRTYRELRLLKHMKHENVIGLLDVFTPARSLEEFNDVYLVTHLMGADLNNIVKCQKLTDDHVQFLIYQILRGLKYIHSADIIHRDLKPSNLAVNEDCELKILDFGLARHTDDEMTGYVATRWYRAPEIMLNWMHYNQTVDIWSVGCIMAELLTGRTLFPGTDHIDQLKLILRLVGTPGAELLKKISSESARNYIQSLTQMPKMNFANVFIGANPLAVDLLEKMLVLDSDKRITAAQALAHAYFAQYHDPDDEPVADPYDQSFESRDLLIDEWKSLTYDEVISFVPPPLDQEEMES

Structure (SMILES) | active in the assay (pIC50, p38α binding) [1] | inhibition of neutrophilia [2]
CSc1nc(-c2cc(NC(=O)c3ccsc3)ccc2C)c2c(n1)N(c1c(F)cccc1F)C(=O)NC2 [7(c), N-{3-[8-(2,6-Difluorophenyl)-2-(methylthio)-7-oxo-5,6,7,8-tetrahydropyrimido[4,5-d]pyrimidin-4-yl]-4-methylphenyl}-3-thiophenecarboxamide] | active | inactive
Cc1ccc(C(=O)Nc2ccc(F)cc2)cc1-c1nc(NCCN(C)C)nc2c1CNC(=O)N2c1c(F)cccc1F [8(c), 3-(8-(2,6-difluorophenyl)-2-{[2-(dimethylamino)ethyl]amino}-7-oxo-5,6,7,8-tetrahydropyrimido[4,5-d]-pyrimidin-4-yl)-N-(4-fluorophenyl)-4-methylbenzamide] | active | statistically significant inhibition of neutrophilia
CSc1nc(-c2cc(NC(=O)c3ccc(C)c(F)c3)ccc2C)c2c(n1)N(c1c(F)cccc1F)C(=O)NC2 [23(c), N-{3-[8-(2,6-difluorophenyl)-2-(methylthio)-7-oxo-5,6,7,8-tetrahydropyrimido[4,5-d]pyrimidin-4-yl]-4-methylphenyl}-3-fluoro-4-methylbenzamide] | active | inactive
CCCNC(=O)c1ccc(C)c(-c2nc(NCCCN(CC)CC)nc3c2CNC(=O)N3c2c(F)cccc2F)c1 [29(c), 3-[2-{[3-(diethylamino)propyl]amino}-8-(2,6-difluorophenyl)-7-oxo-5,6,7,8-tetrahydropyrimido[4,5-d]pyrimidin-4-yl]-4-methyl-N-propylbenzamide] | active | statistically significant inhibition of neutrophilia
Cc1ccc(C(=O)NC(C)C)cc1-c1nc(N(C)CCCN(C)C)nc2c1CNC(=O)N2c1c(F)cccc1F [34(d), 3-{8-(2,6-difluorophenyl)-2-[[3-(dimethylamino)propyl](methyl)amino]-7-oxo-5,6,7,8-tetrahydropyrimido[4,5-d]pyrimidin-4-yl}-4-methyl-N-(1-methylethyl)benzamide] | active | statistically nonsignificant inhibition of neutrophilia
Cc1ccc(C(=O)Nc2ccc(F)cc2)cc1-c1nc(N2CCC(N3CCCC3)CC2)nc2c1CNC(=O)N2c1c(F)cccc1F [86(c), 3-{8-(2,6-difluorophenyl)-7-oxo-2-[4-(1-pyrrolidinyl)-1-piperidinyl]-5,6,7,8-tetrahydropyrimido[4,5-d]pyrimidin-4-yl}-N-(4-fluorophenyl)-4-methylbenzamide] | active | statistically nonsignificant inhibition of neutrophilia
Cc1ccc(C(=O)Nc2ccc(F)cc2)cc1-c1nc(N2CCC(N3CCCCC3)CC2)nc2c1CNC(=O)N2c1c(F)cccc1F [87(b), 3-[2-(1,4′-bipiperidin-1′-yl)-8-(2,6-difluorophenyl)-7-oxo-5,6,7,8-tetrahydropyrimido[4,5-d]pyrimidin-4-yl]-N-(4-fluorophenyl)-4-methylbenzamide] | active | statistically nonsignificant inhibition of neutrophilia
Cc1ccc(C(=O)Nc2nccs2)cc1-c1nc(NCCN(C)C)nc2c1CNC(=O)N2c1c(F)cccc1F [118(c), 3-(8-(2,6-difluorophenyl)-2-{[2-(dimethylamino)ethyl]amino}-7-oxo-5,6,7,8-tetrahydropyrimido[4,5-d]pyrimidin-4-yl)-4-methyl-N-1,3-thiazol-2-ylbenzamide] | active | statistically significant inhibition of neutrophilia
Cc1ccc(C(=O)Nc2ccccc2)cc1-c1nc(NCCN(C)C)nc2c1CNC(=O)N2c1c(F)cccc1F [Example 137, 3-(8-(2,6-difluorophenyl)-2-{[2-(dimethylamino)ethyl]amino}-7-oxo-5,6,7,8-tetrahydropyrimido[4,5-d]pyrimidin-4-yl)-4-methyl-N-phenylbenzamide] | – | statistically significant inhibition of neutrophilia
Cc1ccc(C(=O)Nc2ccc(F)c(F)c2)cc1-c1nc(NCCN(C)C)nc2c1CNC(=O)N2c1c(F)cccc1F [Example 138, N-(3,4-difluorophenyl)-3-(8-(2,6-difluorophenyl)-2-{[2-(dimethylamino)-ethyl]amino}-7-oxo-5,6,7,8-tetrahydropyrimido[4,5-d]pyrimidin-4-yl)-4-methylbenzamide] | – | statistically significant inhibition of neutrophilia
COc1ccc(NC(=O)c2ccc(C)c(-c3nc(NCCN(C)C)nc4c3CNC(=O)N4c3c(F)cccc3F)c2)cn1 [Example 140, 3-(8-(2,6-difluorophenyl)-2-{[2-(dimethylamino)ethyl]amino}-7-oxo-5,6,7,8-tetrahydropyrimido[4,5-d]pyrimidin-4-yl)-4-methyl-N-[6-(methyloxy)-3-pyridinyl]benzamide] | – | statistically significant inhibition of neutrophilia
CCc1ccc(C(=O)Nc2nccs2)cc1-c1nc(NCCN(C)C)nc2c1CNC(=O)N2c1c(F)cccc1F [Example 144, 3-(8-(2,6-difluorophenyl)-2-{[2-(dimethylamino)ethyl]amino}-7-oxo-5,6,7,8-tetrahydropyrimido[4,5-d]pyrimidin-4-yl)-4-ethyl-N-1,3-thiazol-2-ylbenzamide trifluoroacetate] | – | statistically significant inhibition of neutrophilia
Cc1ccc(C(=O)NC(C)C)cc1-c1nc(N2CCCN(C)CC2)nc2c1CNC(=O)N2c1c(F)cccc1F [Example 179, 3-[8-(2,6-difluorophenyl)-2-(4-methylhexahydro-1H-1,4-diazepin-1-yl)-7-oxo-5,6,7,8-tetrahydropyrimido[4,5-d]pyrimidin-4-yl]-4-methyl-N-(1-methylethyl)benzamide trifluoroacetate] | – | statistically nonsignificant inhibition of neutrophilia
Cc1ccc(C(=O)NC(C)C)cc1-c1nc(NC2CCN(Cc3ccccc3)CC2)nc2c1CNC(=O)N2c1c(F)cccc1F [Example 200, 3-(8-(2,6-difluorophenyl)-7-oxo-2-{[1-(phenylmethyl)-4-piperidinyl]amino}-5,6,718-tetrahydropyrimido[4,5-d]pyrimidin-4-yl)-4-methyl-N-(1-methylethyl)benzamide] | – | statistically significant inhibition of neutrophilia

Source: patent US20090239846A1, “Novel Compounds” (Glaxo Group Limited, priority 2005, published 2009)
